Measurements from PMC11945486, “TAS1R2/TAS1R3 Single-Nucleotide Polymorphisms Affect Sweet Taste Receptor Activation by Sweeteners: The SWEET Project” (Nutrients, 2025).

Target: T1, human TAS1R2-S212G (subunit alone) (Homo sapiens, UniProt Q8TE23, S212G)
T1 construct: expressed in transfected cells; host or cells: HEK293T-Gα16gust44
T1 sequence (Q8TE23 20-839 S212G): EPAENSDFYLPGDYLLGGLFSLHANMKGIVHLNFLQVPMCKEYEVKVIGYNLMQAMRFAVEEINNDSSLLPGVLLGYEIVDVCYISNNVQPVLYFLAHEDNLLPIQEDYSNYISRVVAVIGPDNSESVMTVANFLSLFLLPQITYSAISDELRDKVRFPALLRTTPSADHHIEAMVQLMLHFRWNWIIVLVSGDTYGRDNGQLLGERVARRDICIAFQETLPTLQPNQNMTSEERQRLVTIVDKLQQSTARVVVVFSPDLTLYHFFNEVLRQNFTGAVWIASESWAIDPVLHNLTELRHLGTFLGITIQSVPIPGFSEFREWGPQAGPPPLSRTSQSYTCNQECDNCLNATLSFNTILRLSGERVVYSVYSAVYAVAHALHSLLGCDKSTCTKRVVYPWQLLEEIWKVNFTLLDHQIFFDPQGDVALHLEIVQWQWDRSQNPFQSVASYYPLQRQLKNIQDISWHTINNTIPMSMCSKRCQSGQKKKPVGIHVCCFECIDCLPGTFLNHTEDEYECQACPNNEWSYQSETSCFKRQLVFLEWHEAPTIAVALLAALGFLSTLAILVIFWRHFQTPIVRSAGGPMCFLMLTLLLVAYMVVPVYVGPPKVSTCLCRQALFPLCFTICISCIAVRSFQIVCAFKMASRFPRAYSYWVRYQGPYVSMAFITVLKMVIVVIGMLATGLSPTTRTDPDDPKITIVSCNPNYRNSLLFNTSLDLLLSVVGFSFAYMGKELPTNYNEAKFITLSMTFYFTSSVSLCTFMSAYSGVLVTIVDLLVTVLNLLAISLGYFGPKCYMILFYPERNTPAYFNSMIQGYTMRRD
Assay: Calcium mobilisation assay, TAS1R2-S212G subunit alone
Assay type: cell-based
Excerpt: The coding sequences for TAS1R2 and TAS1R3 were commercially synthesised, and the human codon was optimised for expression in human cells. The coding sequences of human TAS1R2 and TAS1R3 were subcloned and inserted into the mammalian expression vectors pcDNA6/myc-HisA and pcDNA4/myc-HisA (Invitrogen; Thermo Fisher Scientific; Illkirch, France) between the EcoRI and NotI restriction sites, generating the plasmids pcDNA6-TAS1R2 and pcDNA4-TAS1R3, respectively. To increase protein expression in mammalian cells, an upstream start codon was used, which was a sequence called MAX, corresponding to the QBI SP163 element also described in pcDNA4-HisMax (Invitrogen; Thermo Fisher Scientific; Illkirch, France). To measure the expression level of the receptor by immunohistochemistry, we used the FLAG sequence ([…]) in the C-terminal position, which encodes the FLAG tag epitope. […]
The HEK293T cells were kindly provided by Jay P. Slack (Givaudan Flavors Corporation; Cincinnati, OH, USA). […] The fluorescence intensity was measured for 90 s (excitation 488 nm, emission 510 nm) in an automated fluorometric FlexStation®3 Multi-Mode microplate reader (Molecular Devices; San Jose, CA, USA). […] The Ca^2+ changes were expressed as fractional changes in fluorescent light intensity: ΔF/F = (F − F0)/F0, where F was the fluorescent light intensity at each point, and F0 was the value of emitted fluorescent light prior to stimulus application. To calculate dose–response relationships, the changes in fluorescence upon stimulus application were averaged, mock-subtracted and baseline-corrected. […] The half-maximal effective concentrations (EC50 values) and maximal signal amplitudes were calculated using SigmaPlot software (version 15.0) (Systat Software; San Jose, CA, USA).
For in vitro calcium mobilisation assay performed on hTAS1R2-SNPs, hTAS1R3-SNPs and mTAS1R3-I60T, 6 to 7 concentrations were tested for each sweet compound, plus buffer alone. All concentration–receptor combinations were measured in duplicate, and each experiment was repeated at least 4 times (8 wells/concentration). […]

EC50: 178 ± 22.7 µM | R1 = Variant EC50/WT EC50: 2.0 | Max ΔF/F0 (maximal signal amplitude): 0.47 ± 0.02
SMILES: C=C(C)[C@@H]1CC=C(/C=N/O)CC1 [Perillartine, perillartine]
